According to publication PMC9297976 (Journal of Applied Toxicology, 2021):

Key:
medaka Esr1 (mEsr1) [1] = target: T1, medaka Esr1 (mEsr1) (Oryzias latipes, UniProt P50241); assay: Medaka Esr1 reporter gene assay, antagonist assay; type: cell-based, Japanese medaka (Oryzias latipes); details: MAC = 1.0 × 10^−5 M
T1 sequence (P50241 1-620): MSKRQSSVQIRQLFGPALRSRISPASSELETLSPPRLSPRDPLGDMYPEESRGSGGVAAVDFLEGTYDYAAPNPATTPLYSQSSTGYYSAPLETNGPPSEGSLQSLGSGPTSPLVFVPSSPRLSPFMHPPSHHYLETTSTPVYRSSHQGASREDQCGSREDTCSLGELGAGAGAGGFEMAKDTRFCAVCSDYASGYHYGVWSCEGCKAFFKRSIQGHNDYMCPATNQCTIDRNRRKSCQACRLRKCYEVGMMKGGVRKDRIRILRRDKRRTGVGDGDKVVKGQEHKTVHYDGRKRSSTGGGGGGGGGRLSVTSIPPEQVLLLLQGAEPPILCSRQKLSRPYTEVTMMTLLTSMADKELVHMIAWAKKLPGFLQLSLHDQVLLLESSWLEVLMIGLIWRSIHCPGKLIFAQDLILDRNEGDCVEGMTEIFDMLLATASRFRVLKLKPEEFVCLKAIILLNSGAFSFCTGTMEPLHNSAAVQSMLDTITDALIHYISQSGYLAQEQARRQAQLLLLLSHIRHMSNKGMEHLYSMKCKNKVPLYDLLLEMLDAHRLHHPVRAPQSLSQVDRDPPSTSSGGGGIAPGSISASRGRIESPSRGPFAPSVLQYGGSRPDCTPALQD

medaka ARβ (mArβ) [2] = target: T2, medaka ARβ (mArβ) (Oryzias latipes, UniProt D1MV73); assay: Medaka ARβ reporter gene assay, agonist assay; type: cell-based, Japanese medaka (Oryzias latipes); details: MAC = 1.0 × 10^−5 M
T2 sequence (D1MV73 1-744): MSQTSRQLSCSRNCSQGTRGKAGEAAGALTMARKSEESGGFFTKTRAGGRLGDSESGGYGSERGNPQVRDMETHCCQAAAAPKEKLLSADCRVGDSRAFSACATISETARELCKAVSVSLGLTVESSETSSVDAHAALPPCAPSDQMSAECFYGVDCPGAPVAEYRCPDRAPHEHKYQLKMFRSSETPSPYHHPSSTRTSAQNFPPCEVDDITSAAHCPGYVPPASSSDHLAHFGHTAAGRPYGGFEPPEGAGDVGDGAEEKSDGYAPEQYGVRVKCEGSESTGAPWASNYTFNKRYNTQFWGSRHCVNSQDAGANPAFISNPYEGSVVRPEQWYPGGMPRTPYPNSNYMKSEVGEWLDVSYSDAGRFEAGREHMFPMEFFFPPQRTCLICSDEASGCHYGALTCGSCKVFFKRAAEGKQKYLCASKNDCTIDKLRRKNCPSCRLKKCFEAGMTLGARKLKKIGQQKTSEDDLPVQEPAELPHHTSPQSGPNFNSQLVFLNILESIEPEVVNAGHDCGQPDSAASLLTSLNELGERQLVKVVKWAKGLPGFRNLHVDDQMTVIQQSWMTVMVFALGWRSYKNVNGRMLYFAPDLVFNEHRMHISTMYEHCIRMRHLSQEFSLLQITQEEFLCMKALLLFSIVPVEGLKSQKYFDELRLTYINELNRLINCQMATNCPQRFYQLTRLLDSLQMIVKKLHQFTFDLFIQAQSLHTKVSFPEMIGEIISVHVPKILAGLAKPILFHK

medaka Esr1 (mEsr1) [3] = target: T1, medaka Esr1 (mEsr1); assay: cell-based; design: species or system Japanese medaka (Oryzias latipes); details: for In vitro positive: Esr: mode of action in which EC50 or PC10 was obtained in RGA
[4] = system: Japanese medaka (Oryzias latipes); assay: Fish Short‐Term Reproduction Assay; type: in vivo; details: for LOECREPRO: LOEC on reproduction (fecundity and/or fertility); for minimal effective concentration: Oryzias latipes, 504 h, read-out: LOECmVTG; for LOECREPRO (reduction in fecundity or fertility): concentrations without overt toxicity; for LOECTOX: lowest observed effect concentration on mortality; for GSI Female / GSI Male / HSI Female / HSI Male / Length Female / Length Male / Weight Female / Weight Male: completion of exposure
medaka ARβ (mArβ) [5] = target: T2, medaka ARβ (mArβ); assay: Medaka ARβ reporter gene assay, antagonist assay; type: cell-based, Japanese medaka (Oryzias latipes)
[6] = 2.94 mg/L measured, 21 d, sig. ↑ vs control
[7] = 2.94 mg/L measured, 21 d, sig. ↓ vs control
[8] = measured concentration 0.311 mg/L
[9] = measured concentration 0.926 mg/L
[10] = measured concentration 2.94 mg/L
[11] = 1,009 ng/L measured, 21 d, sig. ↑ vs control
[12] = measured concentration 112 ng/L
[13] = measured concentration 272 ng/L
[14] = measured concentration 1,009 ng/L

## CCCOC(=O)c1ccc(O)cc1 [PPB, 4‐Hydroxybenzoate propyl]
Medaka Esr1 (mEsr1) [1]; E2 spiked at 0.2 nM (A)
  Antagonistic activity: NE (MAC = 1.0 × 10^−5 M)^(A)
Medaka ARβ (mArβ) [2]
  Agonistic activity: NE (MAC = 1.0 × 10^−5 M)
Medaka Esr1 (mEsr1) [3]
  EC50: 7 µM
  In vitro positive: Esr: Esr
[4]; 0.311 mg/L measured, 21 d
  Fertility rate: 93 ± 3.1%
  Hepatic VTG, female: 1,190 ± 238 ng/mg‐liver
  Mortality: 0.0%
  Mortality, number of dead fish: 0
  Number of fertilized eggs (per female per day): 26 ± 0.8
  Number of total eggs (per female per day): 28 ± 1.6
  SSC female (joint plates with papillary processes): 0 ± 0
[4]; 0.311 mg/L measured, 21 d, sig. ↑ vs control
  Hepatic VTG, male: 23.7 ± 9.0 ng/mg‐liver
[4]; 0.926 mg/L measured, 21 d
  Fertility rate: 94 ± 3.7%
  Hepatic VTG, female: 1,590 ± 271 ng/mg‐liver
  Mortality: 0.0%
  Mortality, number of dead fish: 0
  Number of total eggs (per female per day): 23 ± 2.0
  SSC female (joint plates with papillary processes): 0 ± 0
[4]; 0.926 mg/L measured, 21 d, sig. ↑ vs control
  Hepatic VTG, male: 42.2 ± 36.8 ng/mg‐liver
[4]; 0.926 mg/L measured, 21 d, sig. ↓ vs control
  Number of fertilized eggs (per female per day): 22 ± 1.6
[4]; 2.94 mg/L measured, 21 d
  Mortality: 0.0%
  Mortality, number of dead fish: 0
  SSC female (joint plates with papillary processes): 0 ± 0
[4]; [6]
  Hepatic VTG, female: 3,540 ± 1,080 ng/mg‐liver
  Hepatic VTG, male: 4,170 ± 513 ng/mg‐liver
[4]; [7]
  Fertility rate: 41 ± 23%
  Number of total eggs (per female per day): 10 ± 4.7
[4]; 21 d
  Change of hepatic VTG levels in females (in words): significant increase
  Fecundity, number of total eggs (in words): statistically significant decrease
  LOEC, elevated hepatic VTG in males: 0.311 mg/L
[4]
  LOECREPRO: 926 µg/L
  minimal effective concentration: 0.311 µg/mL
  LOECREPRO (reduction in fecundity or fertility): 926 µg/L
  LOECTOX: ND (>2,940) μg/L
[4]; [8]
  GSI Female: 10.0 ± 0.2%
  GSI Male: 0.74 ± 0.14%
  HSI Female: 5.4 ± 0.75%
  HSI Male: 2.7 ± 0.98%
  Length Female: 36.1 ± 0.2 mm
  Length Male: 36.4 ± 1.3 mm
  Weight Female: 525 ± 27 mg
  Weight Male: 525 ± 13 mg
[4]; [9]
  GSI Female: 9.9 ± 1.1%
  GSI Male: 0.78 ± 0.05%
  HSI Female: 5.1 ± 0.20%
  HSI Male: 2.7 ± 0.23%
  Length Female: 36.8 ± 0.8 mm
  Length Male: 37.1 ± 1.7 mm
  Weight Female: 539 ± 21 mg
  Weight Male: 515 ± 49 mg
[4]; [10]
  GSI Female: 10.0 ± 1.1%
  GSI Male: 0.81 ± 0.21%
  HSI Female: 4.3 ± 0.77%
  HSI Male: 2.3 ± 0.14%
  Length Female: 36.5 ± 1.5 mm
  Length Male: 36.5 ± 0.9 mm
  Weight Female: 549 ± 83 mg
  Weight Male: 490 ± 26 mg
Medaka ARβ (mArβ) [5]; 11‐KT spiked at 50 nM (D), MAC = 1.0 × 10^−5 M
  Antagonistic activity: NE (MAC = 1.0 × 10^−5 M)^(D)

## C[C@]12CC[C@@H]3c4ccc(O)cc4CC[C@H]3[C@@H]1CCC2=O [Chemical E1, Estrone]
Medaka Esr1 (mEsr1) [1]; E2 spiked at 1.0 nM (B)
  Antagonistic activity: NE (MAC = 1.0 × 10^−5 M)^(B)
Medaka ARβ (mArβ) [2]
  Agonistic activity: NE (MAC = 1.0 × 10^−5 M)
Medaka Esr1 (mEsr1) [3]
  EC50: 0.0054 µM
  In vitro positive: Esr: Esr
[4]; 29 ng/L measured, 21 d
  Fertility rate: 92 ± 9.8%
  Hepatic VTG, female: 652 ± 391 ng/mg‐liver
  Hepatic VTG, male: 47.9 ± 54.0 ng/mg‐liver
  Mortality: 0.0%
  Mortality, number of dead fish: 0
  Number of fertilized eggs (per female per day): 17 ± 4.4
  Number of total eggs (per female per day): 18 ± 3.2
  SSC female (joint plates with papillary processes): 0 ± 0
  SSC male (joint plates with papillary processes): 97 ± 14
[4]; 112 ng/L measured, 21 d
  Fertility rate: 96 ± 1.3%
  Hepatic VTG, female: 977 ± 274 ng/mg‐liver
  Hepatic VTG, male: 382 ± 351 ng/mg‐liver
  Mortality: 0.0%
  Mortality, number of dead fish: 0
  Number of fertilized eggs (per female per day): 19 ± 2.4
  Number of total eggs (per female per day): 19 ± 2.6
  SSC female (joint plates with papillary processes): 0 ± 0
  SSC male (joint plates with papillary processes): 98 ± 25
[4]; 272 ng/L measured, 21 d
  Fertility rate: 96 ± 2.8%
  Hepatic VTG, female: 1,017 ± 238 ng/mg‐liver
  Mortality: 0.0%
  Mortality, number of dead fish: 0
  Number of fertilized eggs (per female per day): 16 ± 2.5
  Number of total eggs (per female per day): 17 ± 2.5
  SSC female (joint plates with papillary processes): 0 ± 0
  SSC male (joint plates with papillary processes): 85 ± 14
[4]; 272 ng/L measured, 21 d, sig. ↑ vs control
  Hepatic VTG, male: 3,649 ± 665 ng/mg‐liver
[4]; 1,009 ng/L measured, 21 d
  Fertility rate: 86 ± 3.6%
  Mortality: 0.0%
  Mortality, number of dead fish: 0
  SSC female (joint plates with papillary processes): 0 ± 0
  SSC male (joint plates with papillary processes): 85 ± 18
[4]; [11]
  Hepatic VTG, female: 1994 ± 1,480 ng/mg‐liver
  Hepatic VTG, male: 5,429 ± 687 ng/mg‐liver
[4]; 1,009 ng/L measured, 21 d, sig. ↓ vs control
  Number of total eggs (per female per day): 10 ± 2.0
[4]; 21 d
  Fecundity, number of total eggs (in words): statistically significant decrease
  LOEC, elevated hepatic VTG in males: 0.000272 mg/L
[4]
  LOECREPRO: 1.009 µg/L
  minimal effective concentration: 0.000272 µg/mL
  LOECREPRO (reduction in fecundity or fertility): 1.009 µg/L
  LOECTOX: ND (>1.009) μg/L
[4]; chemicals with significant decrease of number of total eggs
  Fertility rate (in words): no significant effect
[4]; measured concentration 29 ng/L
  GSI Female: 10.7 ± 1.4%
  GSI Male: 1.15 ± 0.31%
  HSI Female: 5.4 ± 0.61%
  HSI Male: 2.0 ± 0.28%
  Length Female: 33.8 ± 1.0 mm
  Length Male: 35.8 ± 1.7 mm
  Weight Female: 454 ± 56 mg
  Weight Male: 468 ± 85 mg
[4]; [12]
  GSI Female: 11.2 ± 1.8%
  GSI Male: 1.17 ± 0.27%
  HSI Female: 5.5 ± 0.77%
  HSI Male: 2.1 ± 0.54%
  Length Female: 34.3 ± 1.6 mm
  Length Male: 36.5 ± 1.2 mm
  Weight Female: 460 ± 86 mg
  Weight Male: 481 ± 44 mg
[4]; [13]
  GSI Female: 11.3 ± 1.0%
  GSI Male: 0.84 ± 0.32%
  HSI Female: 6.0 ± 0.76%
  HSI Male: 2.7 ± 0.38%
  Length Female: 34.0 ± 1.0 mm
  Length Male: 36.5 ± 1.3 mm
  Weight Female: 417 ± 41 mg
  Weight Male: 464 ± 62 mg
[4]; [14]
  GSI Female: 11.4 ± 7.1%
  GSI Male: 0.48 ± 0.23%
  HSI Female: 5.1 ± 1.24%
  HSI Male: 3.5 ± 0.50%
  Length Female: 34.2 ± 2.1 mm
  Length Male: 35.9 ± 1.4 mm
  Weight Female: 443 ± 97 mg
  Weight Male: 468 ± 54 mg
Medaka ARβ (mArβ) [5]; Antagonistic activity IC50, 11‐KT spiked at 50 nM (D)
  IC50: 1500 nM
Medaka ARβ (mArβ) [5]; mode of action in which IC50 or IC30 was obtained in RGA
  In vitro positive: aAr: aAr
Medaka ARβ (mArβ) [5]; transcriptional activity on mArβ by 11KT
  Antagonistic activity on mArβ (in words): inhibitory potency
